The data set in a line: recombinant barcode read abundance after kanamycin selection (control-corrected) (log10(CPM+1)); higher = more efficient recombination; sequences stand for … in AGTGCAGAGAAAATCGGCCAGTTTTCTCTGCCTGCAGTCCGCATGCCGT…AGATTTATGCAGCGGACTGCCTTTCTCCCAAAGTGATAAACCGGACAGTATCATGGACCGGTTTTCCCGGTAATCCGTATTTGCAAGGTTGGTTTCACT; site = the 11-nt target. The gist of the method:
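Targets and IS621 bridge RNA target-binding loops were paired in oligos, each with a promoter, a barcode and the J23119-driven first 104 bridge RNA bases. A vector carrying the remaining 73 bp and a T7-inducible recombinase received these by Gibson cloning, and the pool was co-electroporated into E. coli with a donor plasmid. Duplicate plates contained chloramphenicol/ampicillin LB agar (control) or chloramphenicol/ampicillin/kanamycin with 0.1 mM IPTG. Recombination efficiency comes from averaged, control-corrected counts per million of recombinant-junction barcodes, reported as log10(CPM+1).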
For “CCTGTCACTTGGGTTCTAACCTGTTGCCA (site CCTGTCACTTG)”, the “recombinant barcode read abundance (log10)” value came to 0.474.

With “CCTGTCACTTGGGTTCTAACCTGTTGCCA (site TACCGAGCTCA)”, the “recombinant barcode read abundance (log10)” value is 0.11. Regarding “CCTTGAGCTTGGGTTCTAACCTGTTGCTG (site CCTTGAGCTCA)”, the “recombinant barcode read abundance (log10)” value came to 0.308. The value for “CCTTGAGCTTGGGTTCTAACCTGTTGCTG (site GCTTGAGCTCG)” was 0.0694; that for “CCTTGTACTTGGGTTCTAACCTGTTGCTT (site AGCATCTCTCG)” was 0.0216. The value for “CCTTGTACTTGGGTTCTAACCTGTTGCTT (site CCTTGTACTAA)” was 0.131; that for “CCTTTGACTTGGGTTCTAACCTGTTGCTT (site CCTTTGACTAA)” was 0.0825; that for “CCTTTGACTTGGGTTCTAACCTGTTGCTT (site CCTTTGTCTAA)” was 0.156.

Turning to “CGAACCGCTTGGGTTCTAACCTGTTGCCT (site CAAACCGCTAG)”, the “recombinant barcode read abundance (log10)” value amounted to 0.26. As to “CGAACCGCTTGGGTTCTAACCTGTTGCCT (site CCAACCGCTAG)”, the “recombinant barcode read abundance (log10)” value was 0.0439. The figure for “CGAACCGCTTGGGTTCTAACCTGTTGCCT (site CGAACCGCTAG)” is 0.974. The figure for “CGAACCGCTTGGGTTCTAACCTGTTGCCT (site CTAACCGCTAG)” is 0.0258; for “CGAACCTCTTGGGTTCTAACCTGTTGCCG (site CGAACCTCTCG)” it is 0.903; for “CGAACCTCTTGGGTTCTAACCTGTTGCCG (site CGAATCCCTCG)” it is 0.0358.

Take “CGAACTACTTGGGTTCTAACCTGTTGCAT (site CGAACTACTAA)”: the “recombinant barcode read abundance (log10)” value worked out at 0.215. As to “CGAACTACTTGGGTTCTAACCTGTTGCAT (site CGAACTACTAC)”, the “recombinant barcode read abundance (log10)” value turned out to be 0.168. Consider “CGAACTACTTGGGTTCTAACCTGTTGCAT (site CGAACTACTAG)”, for which the “recombinant barcode read abundance (log10)” value amounted to 0.0576.

For “CGAACTACTTGGGTTCTAACCTGTTGCAT (site CGAACTACTAT)”, the “recombinant barcode read abundance (log10)” value came to 0.239. Turning to “CGAACTACTTGGGTTCTAACCTGTTGCTT (site CGAACTACTAA)”, the “recombinant barcode read abundance (log10)” value was 0.142.

On to “CGAACTACTTGGGTTCTAACCTGTTGCTT (site CGAACTACTAC)”, for which the “recombinant barcode read abundance (log10)” value was determined as 0.205. The figure for “CGAACTACTTGGGTTCTAACCTGTTGCTT (site CGAACTACTAG)” is 0.202; for “CGAACTACTTGGGTTCTAACCTGTTGCTT (site CGAACTACTAT)” it is 0.0384. The value for “CGAAGGACTTGGGTTCTAACCTGTTGCTA (site CGAAGGACTTA)” was 0.973; that for “CGAAGGACTTGGGTTCTAACCTGTTGCTA (site CTAAGGACTTA)” was 0.231. The figure for “CGAATCACTTGGGTTCTAACCTGTTGCCT (site CGAATCACTAG)” is 0.686; for “CGAATCACTTGGGTTCTAACCTGTTGCCT (site CGAATCCCTAG)” it is 0.062; for “CGAATCACTTGGGTTCTAACCTGTTGCCT (site CGAATCGCTAG)” it is 0.182. Consider “CGAATCACTTGGGTTCTAACCTGTTGCCT (site CGAATCTCTAG)”, for which the “recombinant barcode read abundance (log10)” value came to 0.0867. As for “CGAATCCCTTGGGTTCTAACCTGTTGCCG (site CGAACCTCTCG)”, the “recombinant barcode read abundance (log10)” value came to 0.185. For the sequence “CGAATCCCTTGGGTTCTAACCTGTTGCCG (site CGAATCCCTCG)”, the “recombinant barcode read abundance (log10)” value is 0.906. As for “CGACAATCTTGGGTTCTAACCTGTTGCTT (site CGACAATCTAA)”, the “recombinant barcode read abundance (log10)” value was found to be 0.0157. The value for “CGACAATCTTGGGTTCTAACCTGTTGCTT (site TCTAGGACTTT)” was 0.27; that for “CGACACACTTGGGTTCTAACCTGTTGCCT (site CGACACACTAG)” was 0.135. Regarding “CGACACACTTGGGTTCTAACCTGTTGCCT (site CGCCACACTAG)”, the “recombinant barcode read abundance (log10)” value was 0.0974. The value for “CGACACACTTGGGTTCTAACCTGTTGCCT (site CGGCACACTAG)” was 0.0559. The value for “CGACACACTTGGGTTCTAACCTGTTGCCT (site CGTCACACTAG)” was 0.0536; that for “CGACAGGCTTGGGTTCTAACCTGTTGCCT (site AGACTGGCTAG)” was 0.073; that for “CGACAGGCTTGGGTTCTAACCTGTTGCCT (site CGACAGGCTAG)” was 0.439. The figure for “CGACGCACTTGGGTTCTAACCTGTTGCGG (site CGACGCACTCC)” is 0.584. “CGACGCACTTGGGTTCTAACCTGTTGCGG (site TAGTTGTCTAA)”: the “recombinant barcode read abundance (log10)” value worked out at 0.0412. On to “CGAGACGCTTGGGTTCTAACCTGTTGCCT (site CCATACGCTAG)”, for which the “recombinant barcode read abundance (log10)” value was 0.109. The figure for “CGAGACGCTTGGGTTCTAACCTGTTGCCT (site CGAGACGCTAG)” is 1.87; for “CGAGAGACTTGGGTTCTAACCTGTTGCTT (site CAAGAGTCTAA)” it is 0.0807. The value for “CGAGAGACTTGGGTTCTAACCTGTTGCTT (site CGAGAGACTAA)” was 0.994; that for “CGAGAGTCTTGGGTTCTAACCTGTTGCGG (site AGAGAGGCTCC)” was 0.119; that for “CGAGAGTCTTGGGTTCTAACCTGTTGCGG (site CGAGAGTCTCC)” was 1.31. In the case of “CGAGATTCTTGGGTTCTAACCTGTTGCCT (site CAAGATTCTAG)”, the “recombinant barcode read abundance (log10)” value was 0.331. The figure for “CGAGATTCTTGGGTTCTAACCTGTTGCCT (site CCAGATTCTAG)” is 0.271; for “CGAGATTCTTGGGTTCTAACCTGTTGCCT (site CGAGATTCTAG)” it is 0.755; for “CGAGATTCTTGGGTTCTAACCTGTTGCCT (site CTAGATTCTAG)” it is 0.332. The value for “CGAGCTCCTTGGGTTCTAACCTGTTGCGT (site CGAGCTCCTAA)” was 0.0215. The figure for “CGAGCTCCTTGGGTTCTAACCTGTTGCGT (site CGAGCTCCTAC)” is 2.04; for “CGAGCTCCTTGGGTTCTAACCTGTTGCGT (site CGAGCTCCTAG)” it is 0.813; for “CGAGCTCCTTGGGTTCTAACCTGTTGCGT (site CGAGCTCCTAT)” it is 0.766. For the sequence “CGAGGACCTTGGGTTCTAACCTGTTGCCT (site CCAGGACCTAG)”, the “recombinant barcode read abundance (log10)” value came out at 0.729. The figure for “CGAGGACCTTGGGTTCTAACCTGTTGCCT (site CGAGGACCTAG)” is 2.3; for “CGAGGGACTTGGGTTCTAACCTGTTGCCT (site CGAGGGACTAG)” it is 1.81. The figure for “CGAGGGACTTGGGTTCTAACCTGTTGCCT (site CGAGGGCCTAG)” is 0.0632; for “CGAGGGACTTGGGTTCTAACCTGTTGCCT (site CGAGGGGCTAG)” it is 0.807; for “CGAGGGACTTGGGTTCTAACCTGTTGCCT (site CGAGGGTCTAG)” it is 0.056. Take “CGAGGGCCTTGGGTTCTAACCTGTTGCCT (site CGAGGGACTAG)”: the “recombinant barcode read abundance (log10)” value is 0.049. The figure for “CGAGGGCCTTGGGTTCTAACCTGTTGCCT (site CGAGGGCCTAG)” is 0.603; for “CGAGGGCCTTGGGTTCTAACCTGTTGCCT (site CGAGGGGCTAG)” it is 0.0635; for “CGAGGGCCTTGGGTTCTAACCTGTTGCCT (site CGAGGGTCTAG)” it is 0.345. On to “CGAGTGACTTGGGTTCTAACCTGTTGCAG (site ATTAACTCTAG)”, for which the “recombinant barcode read abundance (log10)” value worked out at 0.0869. In the case of “CGAGTGACTTGGGTTCTAACCTGTTGCAG (site CGAGTGACTCT)”, the “recombinant barcode read abundance (log10)” value amounted to 1.32. Regarding “CGATGGACTTGGGTTCTAACCTGTTGCCG (site CAATGGGCTCG)”, the “recombinant barcode read abundance (log10)” value is 0.102. The value for “CGATGGACTTGGGTTCTAACCTGTTGCCG (site CGATGGACTCG)” was 0.956; that for “CGATGTCCTTGGGTTCTAACCTGTTGCCT (site CGATGTCCTAG)” was 0.864. Consider “CGATGTCCTTGGGTTCTAACCTGTTGCCT (site CGATGTGCTAG)”, for which the “recombinant barcode read abundance (log10)” value came out at 0.039. Consider “CGATTACCTTGGGTTCTAACCTGTTGCCT (site CGATTAACTAG)”, for which the “recombinant barcode read abundance (log10)” value came out at 0.0753. The figure for “CGATTACCTTGGGTTCTAACCTGTTGCCT (site CGATTACCTAG)” is 0.264; for “CGATTACCTTGGGTTCTAACCTGTTGCCT (site CGATTAGCTAG)” it is 0.38. The figure for “CGATTACCTTGGGTTCTAACCTGTTGCCT (site CGATTATCTAG)” is 0.11. Take “CGATTAGCTTGGGTTCTAACCTGTTGCCT (site CGATTAACTAG)”: the “recombinant barcode read abundance (log10)” value stood at 0.161.

Consider “CGATTAGCTTGGGTTCTAACCTGTTGCCT (site CGATTACCTAG)”, for which the “recombinant barcode read abundance (log10)” value was determined as 0.038.

With “CGATTAGCTTGGGTTCTAACCTGTTGCCT (site CGATTAGCTAG)”, the “recombinant barcode read abundance (log10)” value was found to be 0.169.
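Further: IS621 recombinase and bridge RNA in Escherichia coli cells.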
